Results from patent US20240293413A1, “COMPOUND AND METHOD FOR TREATING CHEMOTHERAPY-RELATED GASTROINTESTINAL SIDE EFFECTS” (ONQUALITY PHARMACEUTICALS CHINA LTD., priority 2021, published 2024).

Columns and labels:
Assay type in all cases: in vivo
[1] = tested on: constipation caused by a chemotherapeutic agent in Balb/c mice; experiment: Examples 406-443 (Table 8): various administration modes of the CDK inhibitor, relief of constipation caused by a chemotherapeutic agent;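 note: percent of treated mice relieved versus chemotherapy group by feces reduction rate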
Method in brief: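 Balb/c mice (10 per group) received the CDK inhibitor orally, intravenously via the tail vein, intraperitoneally, intramuscularly, or topically on shaved abdominal skin, followed by a chemotherapeutic agent; vehicle groups served as controls. Feces amount over 3 h was recorded daily. Feces reduction rate was calculated relative to the control group.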

[2] = tested on: diarrhea caused by a chemotherapeutic agent in Balb/c mice; experiment: Examples 382-405 (Table 7): various administration modes of the CDK inhibitor, relief of diarrhea caused by a chemotherapeutic agent; settings: cycle 8 days
Method in brief: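 Balb/c mice (10 per group) received a CDK inhibitor by oral gavage, intraperitoneal, intramuscular or topical (shaved abdomen) dosing, followed by a chemotherapeutic agent. Vehicle and chemotherapy-only groups served as controls. Diarrhea was graded daily.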

[3] = tested on: Chemotherapeutic agent-caused constipation models of Balb/c mice; experiment: Examples 272-342 (Table 5): oral CDK inhibitor, relief of constipation caused by a chemotherapeutic agent; settings: CDK inhibitor oral 150 mg/kg single;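 note: percent of treated mice relieved versus chemotherapy group by feces reduction rate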
Method in brief: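 Feces reduction rate (%) = (control − treated)/control × 100%, based on the 3-hour feces amount recorded each day. Groups of 10 Balb/c mice received solvent, chemotherapeutic agent alone, or an oral CDK inhibitor before the chemotherapeutic agent.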

CC(=O)c1c(C)c2cnc(Nc3ccc(N4CCNCC4)cn3)nc2n(C2CCCC2)c1=O [Palbociclib]
60%: Relative remission rate of oral administration ([1]; Example 423, Etoposide and cisplatin intravenous injection 50 and 5 mg/kg single, CDK inhibitor oral 150 mg/kg single, 24 h before, cycle 7 days) | Relative remission rate of oral administration ([2]; Example 403, Gemcitabine (GEM) intravenous injection 120 mg/kg single, CDK inhibitor oral 200 mg/kg single, 12 h before) | Relative remission rate ([3]; Example 305, Irinotecan (CPT-11) intraperitoneal injection 260 mg/kg single, 4 h before, cycle 7 days)
10%: Relative remission rate of other administration mode ([1]; Example 406, Doxorubicin (Dox) intraperitoneal injection 12 mg/kg single, CDK inhibitor intravenous injection 150 mg/kg single, 0.5 h before, cycle 8 days) | Relative remission rate of other administration mode ([1]; Example 407, Doxorubicin (Dox) intraperitoneal injection 12 mg/kg single, CDK inhibitor intravenous injection 150 mg/kg single, 4 h before, cycle 8 days) | Relative remission rate of other administration mode ([1]; Example 408, Doxorubicin (Dox) intraperitoneal injection 12 mg/kg single, CDK inhibitor intravenous injection 150 mg/kg single, 8 h before, cycle 8 days) | Relative remission rate of other administration mode ([1]; Example 415, Etoposide (Etop1) intraperitoneal injection 100 mg/kg single, CDK inhibitor intravenous injection 150 mg/kg single, 0.5 h before, cycle 8 days) | Relative remission rate of other administration mode ([1]; Example 418, Etoposide (Etop1) intraperitoneal injection 100 mg/kg single, CDK inhibitor intravenous injection 150 mg/kg single, 12 h before, cycle 8 days) | Relative remission rate of other administration mode ([1]; Example 419, Etoposide (Etop1) intraperitoneal injection 100 mg/kg single, CDK inhibitor intravenous injection 150 mg/kg single, 24 h before, cycle 8 days) | Relative remission rate of other administration mode ([1]; Example 422, Etoposide and cisplatin intravenous injection 50 and 5 mg/kg single, CDK inhibitor intravenous injection 150 mg/kg single, 0.5 h before, cycle 7 days) | Relative remission rate of other administration mode ([2]; Example 382, Docetaxel (DTX) intraperitoneal injection 10 mg/kg single, CDK inhibitor intraperitoneal injection 150 mg/kg single, 0.5 h before) | Relative remission rate of other administration mode ([2]; Example 383, Docetaxel (DTX) intraperitoneal injection 10 mg/kg single, CDK inhibitor intraperitoneal injection 150 mg/kg single, 4 h before) | Relative remission rate of other administration mode ([2]; Example 384, Docetaxel (DTX) intraperitoneal injection 10 mg/kg single, CDK inhibitor intraperitoneal injection 150 mg/kg single, 8 h before) | Relative remission rate of other administration mode ([2]; Example 386, Docetaxel (DTX) intraperitoneal injection 10 mg/kg single, CDK inhibitor intraperitoneal injection 150 mg/kg single, 24 h before)
30%: Relative remission rate of oral administration ([1]; Example 407, Doxorubicin (Dox) intraperitoneal injection 12 mg/kg single, CDK inhibitor oral 150 mg/kg single, 4 h before, cycle 8 days) | Relative remission rate of oral administration ([1]; Example 408, Doxorubicin (Dox) intraperitoneal injection 12 mg/kg single, CDK inhibitor oral 150 mg/kg single, 8 h before, cycle 8 days) | Relative remission rate of oral administration ([1]; Example 418, Etoposide (Etop1) intraperitoneal injection 100 mg/kg single, CDK inhibitor oral 150 mg/kg single, 12 h before, cycle 8 days) | Relative remission rate of oral administration ([1]; Example 419, Etoposide (Etop1) intraperitoneal injection 100 mg/kg single, CDK inhibitor oral 150 mg/kg single, 24 h before, cycle 8 days) | Relative remission rate ([3]; Example 308, Irinotecan (CPT-11) intraperitoneal injection 260 mg/kg single, 24 h before, cycle 7 days)
80%: Relative remission rate ([3]; Example 306, Irinotecan (CPT-11) intraperitoneal injection 260 mg/kg single, 8 h before, cycle 7 days)
70%: Relative remission rate of oral administration ([2]; Example 385, Docetaxel (DTX) intraperitoneal injection 10 mg/kg single, CDK inhibitor oral 150 mg/kg single, 12 h before) | Relative remission rate ([3]; Example 307, Irinotecan (CPT-11) intraperitoneal injection 260 mg/kg single, 12 h before, cycle 7 days)
40%: Relative remission rate of oral administration ([1]; Example 410, Doxorubicin (Dox) intraperitoneal injection 12 mg/kg single, CDK inhibitor oral 150 mg/kg single, 24 h before, cycle 8 days) | Relative remission rate of oral administration ([1]; Example 416, Etoposide (Etop1) intraperitoneal injection 100 mg/kg single, CDK inhibitor oral 150 mg/kg single, 4 h before, cycle 8 days) | Relative remission rate of oral administration ([1]; Example 417, Etoposide (Etop1) intraperitoneal injection 100 mg/kg single, CDK inhibitor oral 150 mg/kg single, 8 h before, cycle 8 days) | Relative remission rate of oral administration ([1]; Example 422, Etoposide and cisplatin intravenous injection 50 and 5 mg/kg single, CDK inhibitor oral 150 mg/kg single, 0.5 h before, cycle 7 days) | Relative remission rate of oral administration ([2]; Example 382, Docetaxel (DTX) intraperitoneal injection 10 mg/kg single, CDK inhibitor oral 150 mg/kg single, 0.5 h before) | Relative remission rate of oral administration ([2]; Example 383, Docetaxel (DTX) intraperitoneal injection 10 mg/kg single, CDK inhibitor oral 150 mg/kg single, 4 h before) | Relative remission rate ([3]; Example 304, Irinotecan (CPT-11) intraperitoneal injection 260 mg/kg single, 0.5 h before, cycle 7 days)
0%: Relative remission rate ([3]; Example 309, Irinotecan (CPT-11) intraperitoneal injection 260 mg/kg single, 48 h before, cycle 7 days)
20%: Relative remission rate of oral administration ([1]; Example 406, Doxorubicin (Dox) intraperitoneal injection 12 mg/kg single, CDK inhibitor oral 150 mg/kg single, 0.5 h before, cycle 8 days) | Relative remission rate of other administration mode ([1]; Example 409, Doxorubicin (Dox) intraperitoneal injection 12 mg/kg single, CDK inhibitor intravenous injection 150 mg/kg single, 12 h before, cycle 8 days) | Relative remission rate of other administration mode ([1]; Example 410, Doxorubicin (Dox) intraperitoneal injection 12 mg/kg single, CDK inhibitor intravenous injection 150 mg/kg single, 24 h before, cycle 8 days) | Relative remission rate of oral administration ([1]; Example 415, Etoposide (Etop1) intraperitoneal injection 100 mg/kg single, CDK inhibitor oral 150 mg/kg single, 0.5 h before, cycle 8 days) | Relative remission rate of other administration mode ([1]; Example 416, Etoposide (Etop1) intraperitoneal injection 100 mg/kg single, CDK inhibitor intravenous injection 150 mg/kg single, 4 h before, cycle 8 days) | Relative remission rate of other administration mode ([1]; Example 417, Etoposide (Etop1) intraperitoneal injection 100 mg/kg single, CDK inhibitor intravenous injection 150 mg/kg single, 8 h before, cycle 8 days) | Relative remission rate of other administration mode ([1]; Example 423, Etoposide and cisplatin intravenous injection 50 and 5 mg/kg single, CDK inhibitor intravenous injection 150 mg/kg single, 24 h before, cycle 7 days) | Relative remission rate of other administration mode ([1]; Example 437, Gemcitabine intravenous injection 120 mg/kg single, CDK inhibitor intravenous injection 200 mg/kg single, 12 h before, cycle 8 days) | Relative remission rate of other administration mode ([2]; Example 385, Docetaxel (DTX) intraperitoneal injection 10 mg/kg single, CDK inhibitor intraperitoneal injection 150 mg/kg single, 12 h before) | Relative remission rate of other administration mode ([2]; Example 403, Gemcitabine (GEM) intravenous injection 120 mg/kg single, CDK inhibitor intravenous injection 200 mg/kg single, 12 h before)
50%: Relative remission rate of oral administration ([1]; Example 409, Doxorubicin (Dox) intraperitoneal injection 12 mg/kg single, CDK inhibitor oral 150 mg/kg single, 12 h before, cycle 8 days) | Relative remission rate of oral administration ([1]; Example 437, Gemcitabine intravenous injection 120 mg/kg single, CDK inhibitor oral 200 mg/kg single, 12 h before, cycle 8 days) | Relative remission rate of oral administration ([2]; Example 384, Docetaxel (DTX) intraperitoneal injection 10 mg/kg single, CDK inhibitor oral 150 mg/kg single, 8 h before) | Relative remission rate of oral administration ([2]; Example 386, Docetaxel (DTX) intraperitoneal injection 10 mg/kg single, CDK inhibitor oral 150 mg/kg single, 24 h before) | Relative remission rate ([3]; Example 293, Fluorouracil (5-Fu) oral administration 300 mg/kg single, 8 h before, cycle 7 days) | Relative remission rate ([3]; Example 333, Cytarabine (Ara-C) intravenous injection 600 mg/kg single, 6 h before, cycle 8 days)
